# Source: PMC9127750, “Structure-based design of CDC42 effector interaction inhibitors for the treatment of cancer” (Cell reports, 2022)
# Legend:
# Test in all cases: cells
# A172 = details: Homo sapiens, A 172, read-out: IC50 ARN22089
# Method: (§1) Cancer cell line viability assay was performed using a CellTiterGlo assay. Cells were cultured in their appropriate media and seeded in white multi-well plates. For the assays, cells were incubated with compound at 37°C overnight, and a CellTiterGlo assay was performed to quantify viable cells.
# A549 = details: Homo sapiens, A549, read-out: IC50 ARN22089
# Method: as §1
# BEN = details: read-out: IC50 ARN22089
# Method: as §1
# COR-L279 = details: Homo sapiens, COR-L279, read-out: IC50 ARN22089
# Method: as §1
# COV434 = details: COV434, read-out: IC50 ARN22089
# Method: as §1
# Caki-1 = details: Homo sapiens, CAKI-1, read-out: IC50 ARN22089
# Method: as §1
# Caki-2 = details: Homo sapiens, CAKI-2, read-out: IC50 ARN22089
# Method: as §1
# Colo 205 = details: Homo sapiens, COLO 205, read-out: IC50 ARN22089
# Method: as §1
# DLD-1 = details: Homo sapiens, DLD-1, read-out: IC50 ARN22089
# Method: as §1
# DU-145 = details: Homo sapiens, DU-145, read-out: IC50 ARN22089
# Method: as §1
# H1299 = details: Homo sapiens, NCI-H1299, read-out: IC50 ARN22089
# Method: as §1
# H460 = details: Homo sapiens, NCI-H460, read-out: IC50 ARN22089
# Method: as §1
# HCT-15 = details: Homo sapiens, HCT-15, read-out: IC50 ARN22089
# Method: as §1
# HEC-1-A = details: Homo sapiens, read-out: IC50 ARN22089
# Method: as §1
# HL-60 = details: Homo sapiens, HL-60, read-out: IC50 ARN22089
# Method: as §1
# HT-29 = details: Homo sapiens, HT-29, read-out: IC50 ARN22089
# Method: as §1
# Hep3B2.1-7 = details: read-out: IC50 ARN22089
# Method: as §1
# J82 = details: Homo sapiens, J82, read-out: IC50 ARN22089
# Method: as §1
# K562 = details: Homo sapiens, K562, read-out: IC50 ARN22089
# Method: as §1
# KARPAS 299 = details: Homo sapiens, KARPAS-299, read-out: IC50 ARN22089
# Method: as §1
# MCF-7 = details: Homo sapiens, MCF7, read-out: IC50 ARN22089
# Method: as §1
# MKN-45 = details: Homo sapiens, MKN-45, read-out: IC50 ARN22089
# Method: as §1
# MOLM-13 = details: Homo sapiens, MOLM-13, read-out: IC50 ARN22089
# Method: as §1
# MOLT-4 = details: Homo sapiens, MOLT-4, read-out: IC50 ARN22089
# Method: as §1
# MV4-11 = details: Homo sapiens, MV4-11, read-out: IC50 ARN22089
# Method: as §1
# MiaPaCA2 = details: Homo sapiens, MIA PaCa-2, read-out: IC50 ARN22089
# Method: as §1
# NCI-H1838 = details: Homo sapiens, NCI-H1838, read-out: IC50 ARN22089
# Method: as §1
# NCI-H2110 = details: NCI-H2110, read-out: IC50 ARN22089
# Method: as §1
# NCI-H838 = details: Homo sapiens, NCI-H838, read-out: IC50 ARN22089
# Method: as §1
# OVK18 = details: OVK18, read-out: IC50 ARN22089
# Method: as §1
# P31/FUJ = details: Homo sapiens, read-out: IC50 ARN22089
# Method: as §1
# PANC-1 = details: Homo sapiens, PANC-1, read-out: IC50 ARN22089
# Method: as §1
# RERF-LC-Ad2 = details: RERF-LC-Ad2, read-out: IC50 ARN22089
# Method: as §1
# RL95-2 = details: Homo sapiens, RL95-2, read-out: IC50 ARN22089
# Method: as §1
# SK-ES-1 = details: Homo sapiens, SK-ES1, read-out: IC50 ARN22089
# Method: as §1
# SK-LU-1 = details: Homo sapiens, SK-LU-1, read-out: IC50 ARN22089
# Method: as §1
# SK-N-FI = details: Homo sapiens, read-out: IC50 ARN22089
# Method: as §1
# SK-N-MC = details: Homo sapiens, read-out: IC50 ARN22089
# Method: as §1
# SKMel3 = details: Homo sapiens, SK-MEL3, read-out: IC50 Skmel3
# Method: as §1
# SW620 = details: Homo sapiens, SW-620, read-out: IC50 ARN22089
# Method: as §1
# WM3248 = details: Homo sapiens, WM3248, read-out: IC50 WM3248
# Method: as §1
compound,measurement,setting,value
"CN(C)c1cccc(Nc2cc(-c3ccccc3)nc(C3CCNCC3)n2)c1 [ARN22089, N1,N1-dimethyl-N3-(6-phenyl-2-(piperidin-4-yl)pyrimidin-4-yl)benzene-1,3-diamine]",IC50,A172,5.8 µM
same,IC50,A549,11 µM
same,IC50,BEN,12 µM
same,IC50,COR-L279,12 µM
same,IC50,COV434,5.5 µM
same,IC50,Caki-1,11 µM
same,IC50,Caki-2,9.9 µM
same,IC50,Colo 205,7 µM
same,IC50,DLD-1,5 µM
same,IC50,DU-145,11 µM
same,IC50,H1299,11 µM
same,IC50,H460,8.5 µM
same,IC50,HCT-15,8.7 µM
same,IC50,HEC-1-A,9.5 µM
same,IC50,HL-60,8.1 µM
same,IC50,HT-29,3.5 µM
same,IC50,Hep3B2.1-7,3.6 µM
same,IC50,J82,5.9 µM
same,IC50,K562,9 µM
same,IC50,KARPAS 299,11 µM
same,IC50,MCF-7,7.3 µM
same,IC50,MKN-45,4.1 µM
same,IC50,MOLM-13,13 µM
same,IC50,MOLT-4,11 µM
same,IC50,MV4-11,4.4 µM
same,IC50,MiaPaCA2,8.3 µM
same,IC50,NCI-H1838,17 µM
same,IC50,NCI-H2110,21 µM
same,IC50,NCI-H838,12 µM
same,IC50,OVK18,7.5 µM
same,IC50,P31/FUJ,14 µM
same,IC50,PANC-1,11 µM
same,IC50,RERF-LC-Ad2,9.2 µM
same,IC50,RL95-2,5.7 µM
same,IC50,SK-ES-1,12 µM
same,IC50,SK-LU-1,7.8 µM
same,IC50,SK-N-FI,11 µM
same,IC50,SK-N-MC,4.7 µM
same,IC50,SKMel3,4.26 µM
same,IC50,SW620,5.9 µM
same,IC50,WM3248,4.52 µM
